# Literature values in patent US6627665B2 (Arch Chemicals, Inc., priority 2001, dated 2003).
# Test system: rats
compound,measurement,value
"On1ccccc1=S.On1ccccc1=S.[Cu] [Copper pyrithione powder, copper pyrithione]",acute inhalation toxicity relative to zinc pyrithione powder,more toxic than zinc pyrithione powder
